Results from US20220000816A1, “COMPOSITION AND METHOD OF INHIBITING ACTIVITY OF MINERALOCORTICOID RECEPTOR BY APPLYING IT TO THE SKIN” (AMOREPACIFIC CORPORATION, priority 2018, published 2022).

Test system: mineralocorticoid receptor
Experiment: MMTV-luciferase reporter assay of mineralocorticoid receptor activity in CV-1 cells stimulated with dexamethasone
Type: cell-based
Details: 10 μg/ml compound, after 2 hours dexamethasone (1 nM), cultivated 24 hours, normalized to Renilla luciferase, FIG. 2
Protocol: RNA was separated from a CV-1 cell and PCR was performed using reverse transcriptase, so gene expressions of a glucocorticoid receptor (GR) and a mineralocorticoid receptor (MR) were confirmed, and the results are shown in FIG. 1.
The CV-1 cell was cultivated in a 24-well flat incubator. After 24 hours, the incubating medium was replaced with a 10% charcoal dextran-treated FBS-DMEM, and then after 4 hours, mixed DNA of a MMTV-luciferase reporter plasmid and an internal control group of a pRL-SV-40 plasmid was transfected using TransFast reagent (Promega). After 24 hours, it was treated with 10 μg/ml of the compound (Ramidus AB) represented by Chemical Formula 1-1, and after 2 hours, was treated with dexamethasone (1 nM), and then cultivated for 24 hours. The luciferase activity in the cell lysate was measured using a Dual-Luciferase Reporter Assay System (Promega), and the transfection efficiency was normalized by revising Renilla luciferase activity to measure a relative luciferase activity, and the results are shown in FIG. 2.

For `CC(C)c1ccc2c(c1)CC[C@H]1[C@@H](C)C(C(=O)O)CC[C@]21C` (stereo partly shown) [Chemical Formula 1-1], the “relative luciferase activity (activity of the mineralocorticoid receptor by dexamethasone)” value was “deteriorated activity of the mineralocorticoid receptor”.
